Publication PMC11570842 (The Journal of Biological Chemistry, 2024)

Molecular target: T1, Ubp2 (Saccharomyces cerevisiae, UniProt Q01476)
T1 sequence (Q01476 1-1272): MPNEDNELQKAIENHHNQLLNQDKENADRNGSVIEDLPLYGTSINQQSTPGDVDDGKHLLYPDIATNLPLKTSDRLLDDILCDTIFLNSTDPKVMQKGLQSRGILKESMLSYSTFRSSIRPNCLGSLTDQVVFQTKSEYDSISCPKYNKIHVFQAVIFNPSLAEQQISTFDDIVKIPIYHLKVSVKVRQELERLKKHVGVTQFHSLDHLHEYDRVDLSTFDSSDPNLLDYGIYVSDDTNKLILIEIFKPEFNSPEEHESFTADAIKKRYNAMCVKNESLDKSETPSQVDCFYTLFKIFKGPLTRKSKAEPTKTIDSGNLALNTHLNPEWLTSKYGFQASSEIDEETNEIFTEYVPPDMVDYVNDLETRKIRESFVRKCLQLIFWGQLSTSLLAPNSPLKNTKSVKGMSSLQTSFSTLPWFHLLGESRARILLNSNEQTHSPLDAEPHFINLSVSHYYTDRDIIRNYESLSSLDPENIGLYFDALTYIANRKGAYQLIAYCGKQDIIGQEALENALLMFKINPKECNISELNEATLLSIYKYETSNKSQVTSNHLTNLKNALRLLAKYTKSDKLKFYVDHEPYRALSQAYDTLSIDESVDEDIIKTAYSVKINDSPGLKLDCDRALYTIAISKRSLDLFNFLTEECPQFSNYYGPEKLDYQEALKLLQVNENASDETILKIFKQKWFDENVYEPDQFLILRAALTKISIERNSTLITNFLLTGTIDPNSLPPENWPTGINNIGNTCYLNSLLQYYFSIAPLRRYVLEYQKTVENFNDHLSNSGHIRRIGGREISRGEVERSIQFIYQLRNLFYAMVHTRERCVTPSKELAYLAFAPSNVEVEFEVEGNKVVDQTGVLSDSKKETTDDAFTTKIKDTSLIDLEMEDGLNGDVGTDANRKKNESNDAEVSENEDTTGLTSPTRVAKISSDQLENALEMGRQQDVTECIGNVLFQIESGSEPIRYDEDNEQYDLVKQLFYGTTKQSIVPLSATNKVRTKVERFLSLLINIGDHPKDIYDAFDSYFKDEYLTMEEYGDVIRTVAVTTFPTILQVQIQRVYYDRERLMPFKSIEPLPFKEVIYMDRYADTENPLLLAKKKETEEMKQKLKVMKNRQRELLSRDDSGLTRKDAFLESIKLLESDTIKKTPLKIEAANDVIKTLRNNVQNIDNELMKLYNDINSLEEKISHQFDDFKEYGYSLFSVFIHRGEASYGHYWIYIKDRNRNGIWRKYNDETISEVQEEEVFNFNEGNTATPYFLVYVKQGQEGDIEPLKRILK
Conditions: 100 uM PR-619, 5 min preincubation; 0.75 uM Ub-Rho, 50 mM Tris-HCl pH 7.5, 150 mM NaCl, 30 C; activity abrogated

N#CSc1cc(SC#N)c(N)nc1N [PR-619]
fluorogenic Ub-rhodamine 110 cleavage: pan DUB inhibitor PR-619 and the cysteine alkylator iodoacetamide (IAA) abrogated Ubp2 enzymatic activity
